We go through nine molecules from article PMC6060096, “Novel 3D Structure Based Model for Activity Prediction and Design of Antimicrobial Peptides” (Scientific Reports, 2018).

Converted amounts (≈) assume the structure as drawn. Residues, ends and D or L forms follow the SMILES beside them.

What all share (format): cell-based
In test [1] the test system is Listeria monocytogenes (ATCC 19115). Kind of test: microbe, parasite or virus in culture. The protocol: (§1) The experimentally determined strains are as follows: Listeria monocytogenes (ATCC 19115), Staphylococcus aureus (CMCC(B)26003), Bacillus subtilis (CMCC(B)63501), Escherichia coli (CMCC(B) 44102), Pseudomonas aeruginosa (CMCC(B)10104), Enterococcus faecalis (clinical strains) from China Pharmaceutical University Microbiology Laboratory. Minimal inhibitory concentration(MIC) of peptides were determined using broth microdilution method. Two-fold serial dilutions of eight peptides were prepared from 1024.0 to 1.0 μg/ml in 96-well microtiter plate (100.0 μl of each well). Then peptide dilutions were mixed with LB broth and bacterial culture (100.0 μl) containing 2.0 × 10^5 CFU/ml. Final peptide concentrations ranged from 0.5 to 512.0 μg/ml. The final bacterial concentration was approximately 1.0 × 10^5 CFU/ml. Positive controls were incubated with Cefuroxime instead of peptide, at concentrations from 0.5 to 512.0 μg/ml. Negative and blank controls were incubated, respectively, with sterile deionized water or only LB broth. Microtiter plates were incubated at 37 °C for 24 h under normal atmospheric conditions. OD600 was measured using a microplate spectrophotometer (Multiskan GO, Thermo Scientific, USA). MIC was recorded as the endpoint where no difference of OD600 could be detected with respect to the blank LB broth. MIC assays were performed three times for all strains.

The test system of test [2] is Pseudomonas aeruginosa (CMCC(B)10104). Kind of test: microbe, parasite or virus in culture. The protocol: as §1
Test [3] has as its system Bacillus subtilis (CMCC(B)63501). Kind of test: microbe, parasite or virus in culture. The procedure: as §1
Test [4] deals with Staphylococcus aureus (CMCC(B)26003). Kind of test: microbe, parasite or virus in culture. The procedure:
as §1

The subject of test [5] is Escherichia coli (CMCC(B) 44102). Kind of test: microbe, parasite or virus in culture. The protocol: as §1
The test system of test [6] is Enterococcus faecalis (clinical strains). In words: MIC, broth microdilution. The conditions noted are these: LB broth, ~1.0 × 10^5 CFU/ml, 0.5 to 512.0 μg/ml, 37 °C, 24 h, OD600, performed three times. The protocol:
as §1

With `CO/N=C(\C(=O)N[C@@H]1C(=O)N2C(C(=O)O)=C(COC(N)=O)CS[C@H]12)c1ccco1` [Cefuroxime, reference compound], the MIC is 4 µg/mL (≈ 9.43 µM) in test [1] (Listeria monocytogenes, ATCC19115, ATCC 19115, broth microdilution, LB broth, ~1.0 × 10^5 CFU/ml, 0.5 to 512.0 μg/ml, 37 °C, 24 h, OD600, performed three times); > 512 µg/mL in test [2] (Pseudomonas aeruginosa, CMCC(B)10104, broth microdilution, LB broth, ~1.0 × 10^5 CFU/ml, 0.5 to 512.0 μg/ml, 37 °C, 24 h, OD600, performed three times); ≤ 0.5 µg/mL in test [3] (Bacillus subtilis, CMCC(B)63501, broth microdilution, LB broth, ~1.0 × 10^5 CFU/ml, 0.5 to 512.0 μg/ml, 37 °C, 24 h, OD600, performed three times); 4 µg/mL (≈ 9.43 µM) in test [4] (Staphylococcus aureus, CMCC(B)26003, broth microdilution, LB broth, ~1.0 × 10^5 CFU/ml, 0.5 to 512.0 μg/ml, 37 °C, 24 h, OD600, performed three times); 8 µg/mL (≈ 18.9 µM) in test [5] (Escherichia coli, CMCC(B) 44102, broth microdilution, LB broth, ~1.0 × 10^5 CFU/ml, 0.5 to 512.0 μg/ml, 37 °C, 24 h, OD600, performed three times); 16 µg/mL (≈ 37.7 µM) in test [6] (Enterococcus faecalis).
Consider `CC(C)C[C@H](NC(=O)[C@H](Cc1ccccc1)NC(=O)[C@@H]1CCCN1C(=O)[C@@H]1CCCN1C(=O)[C@H](CC(N)=O)NC(=O)[C@@H](NC(=O)[C@@H](NC(=O)[C@@H]1CCCN1C(=O)[C@@H](N)[C@@H](C)O)C(C)C)C(C)C)C(=O)N[C@@H](CCC(N)=O)C(=O)N[C@@H](CCC(N)=O)C(=O)N[C@H](C(N)=O)[C@@H](C)O` [TPVVNPPFLQQT-NH2, reference compound] (H-TPVVNPPFLQQT-NH2), for which the “MIC Listeria monocytogenes” value in test [1] (ATCC 19115, 24 h) worked out at 512 µg/mL (≈ 382 µM).
As to `CC[C@H](C)[C@H](NC(=O)[C@H](CCCNC(=N)N)NC(=O)[C@H](CCCNC(=N)N)NC(=O)[C@H](Cc1c[nH]c2ccccc12)NC(=O)[C@@H](N)Cc1ccccc1)C(=O)N[C@@H](CCCNC(=N)N)C(=O)N[C@H](C(N)=O)C(C)C` [FWRRIRV-NH2] (H-FWRRIRV-NH2), in test [1] (ATCC 19115, 24 h), the “MIC Listeria monocytogenes” value is 32 µg/mL (≈ 31 µM). Also, the “MIC Bacillus subtilis” value in test [3] (CMCC(B)63501, 24 h) came to 128 µg/mL (≈ 124 µM). In test [4] (CMCC(B)26003, 24 h), the “MIC Staphylococcus aureus” value came out at 64 µg/mL (≈ 62.1 µM).
As to `CC[C@H](C)[C@H](NC(=O)[C@H](CCCNC(=N)N)NC(=O)[C@H](CCCNC(=N)N)NC(=O)[C@H](CC(C)C)NC(=O)[C@@H](N)Cc1ccccc1)C(=O)N[C@@H](CCCNC(=N)N)C(=O)N[C@H](C(N)=O)C(C)C` [FLRRIRV-NH2] (H-FLRRIRV-NH2), in test [1] (ATCC 19115, 24 h), the “MIC Listeria monocytogenes” value amounted to 128 µg/mL (≈ 134 µM). In test [4] (CMCC(B)26003, 24 h), the “MIC Staphylococcus aureus” value came to 128 µg/mL (≈ 134 µM).
In the case of `CC[C@H](C)[C@H](NC(=O)[C@H](CCCNC(=N)N)NC(=O)[C@H](CCCNC(=N)N)NC(=O)[C@H](Cc1c[nH]c2ccccc12)NC(=O)[C@@H](N)Cc1ccccc1)C(=O)N[C@@H](CCCNC(=N)N)C(=O)N[C@H](C(=O)N[C@H](C(=O)N1CCC[C@H]1C(=O)N[C@H](C(=O)N[C@H](C(=O)N[C@@H](CC(N)=O)C(=O)N1CCC[C@H]1C(=O)N[C@@H](Cc1c[nH]c2ccccc12)C(=O)N[C@@H](Cc1ccccc1)C(=O)N[C@@H](CC(C)C)C(=O)N[C@@H](CCC(N)=O)C(=O)N[C@@H](CCC(N)=O)C(=O)N[C@H](C(N)=O)[C@@H](C)O)C(C)C)C(C)C)[C@@H](C)O)C(C)C` [FWRRIRVTPVVNPWFLQQT-NH2] (H-FWRRIRVTPVVNPWFLQQT-NH2), in test [1] (ATCC 19115, 24 h), the “MIC Listeria monocytogenes” value was found to be 32 µg/mL (≈ 13.1 µM). For the same molecule, in test [2] (CMCC(B)10104, 24 h), the “MIC Pseudomonas aeruginosa” value worked out at 256 µg/mL (≈ 105 µM). Besides, the “MIC Bacillus subtilis” value in test [3] (CMCC(B)63501, 24 h) is 64 µg/mL (≈ 26.2 µM). For the same molecule, the “MIC Staphylococcus aureus” value in test [4] (CMCC(B)26003, 24 h) stood at 32 µg/mL (≈ 13.1 µM). Further, the “MIC Escherichia coli” value in test [5] (CMCC(B) 44102, 24 h) came to 256 µg/mL (≈ 105 µM).
As to `CC[C@H](C)[C@H](NC(=O)[C@H](CCCNC(=N)N)NC(=O)[C@H](CCCNC(=N)N)NC(=O)[C@H](Cc1c[nH]c2ccccc12)NC(=O)[C@@H](N)Cc1ccccc1)C(=O)N[C@@H](CCCNC(=N)N)C(=O)N[C@H](C(=O)N[C@H](C(=O)N1CCC[C@H]1C(=O)N[C@@H](Cc1c[nH]c2ccccc12)C(=O)N[C@H](C(=O)N[C@@H](CC(N)=O)C(=O)N1CCC[C@H]1C(=O)N1CCC[C@H]1C(=O)N[C@@H](Cc1ccccc1)C(=O)N[C@@H](CC(C)C)C(=O)N[C@@H](CCC(N)=O)C(=O)N[C@@H](CCC(N)=O)C(=O)N[C@H](C(N)=O)[C@@H](C)O)C(C)C)[C@@H](C)O)C(C)C` [FWRRIRVTPWVNPPFLQQT-NH2] (H-FWRRIRVTPWVNPPFLQQT-NH2), the “MIC Listeria monocytogenes” value in test [1] (ATCC 19115, 24 h) was 64 µg/mL (≈ 26.2 µM). For the same molecule, the “MIC Bacillus subtilis” value in test [3] (CMCC(B)63501, 24 h) came to 256 µg/mL (≈ 105 µM). For the same molecule, the “MIC Staphylococcus aureus” value in test [4] (CMCC(B)26003, 24 h) was found to be 64 µg/mL (≈ 26.2 µM).
As to `CC[C@H](C)[C@H](NC(=O)[C@H](CCCNC(=N)N)NC(=O)[C@H](CCCNC(=N)N)NC(=O)[C@H](Cc1c[nH]c2ccccc12)NC(=O)[C@@H](N)Cc1ccccc1)C(=O)N[C@@H](CCCNC(=N)N)C(=O)N[C@H](C(=O)N[C@H](C(=O)N1CCC[C@H]1C(=O)N[C@H](C(=O)N[C@H](C(=O)N[C@@H](CC(N)=O)C(=O)N1CCC[C@H]1C(=O)N1CCC[C@H]1C(=O)N[C@@H](Cc1ccccc1)C(=O)N[C@@H](CC(C)C)C(=O)N[C@@H](CCC(N)=O)C(=O)N[C@@H](CCC(N)=O)C(=O)N[C@H](C(N)=O)[C@@H](C)O)C(C)C)C(C)C)[C@@H](C)O)C(C)C` [FWRRIRVTPVVNPPFLQQT-NH2] (H-FWRRIRVTPVVNPPFLQQT-NH2), in test [1] (ATCC 19115, 24 h), the “MIC Listeria monocytogenes” value was 256 µg/mL (≈ 109 µM). In addition, in test [4] (CMCC(B)26003, 24 h), the “MIC Staphylococcus aureus” value amounted to 256 µg/mL (≈ 109 µM).
With `CC[C@H](C)[C@H](NC(=O)[C@H](CCCNC(=N)N)NC(=O)[C@H](CCCNC(=N)N)NC(=O)[C@H](CC(C)C)NC(=O)[C@@H](N)Cc1ccccc1)C(=O)N[C@@H](CCCNC(=N)N)C(=O)N[C@H](C(=O)N[C@H](C(=O)N1CCC[C@H]1C(=O)N[C@@H](Cc1c[nH]c2ccccc12)C(=O)N[C@H](C(=O)N[C@@H](CC(N)=O)C(=O)N1CCC[C@H]1C(=O)N1CCC[C@H]1C(=O)N[C@@H](Cc1ccccc1)C(=O)N[C@@H](CC(C)C)C(=O)N[C@@H](CCC(N)=O)C(=O)N[C@@H](CCC(N)=O)C(=O)N[C@H](C(N)=O)[C@@H](C)O)C(C)C)[C@@H](C)O)C(C)C` [FLRRIRVTPWVNPPFLQQT-NH2] (H-FLRRIRVTPWVNPPFLQQT-NH2), in test [1] (ATCC 19115, 24 h), the “MIC Listeria monocytogenes” value worked out at 128 µg/mL (≈ 54.1 µM). In addition, the “MIC Staphylococcus aureus” value in test [4] (CMCC(B)26003, 24 h) stood at 256 µg/mL (≈ 108 µM).
Consider FLRRIRVTPVVNPPFLQQT-NH2, for which the “MIC Listeria monocytogenes” value in test [1] (ATCC 19115, broth microdilution, LB broth, ~1.0 × 10^5 CFU/ml, 0.5 to 512.0 μg/ml, 37 °C, 24 h, OD600, performed three times) was “— (“—” indicates that the peptide is inactive at 512 μg/ml.)”. The “MIC Pseudomonas aeruginosa” value in test [2] (CMCC(B)10104, broth microdilution, LB broth, ~1.0 × 10^5 CFU/ml, 0.5 to 512.0 μg/ml, 37 °C, 24 h, OD600, performed three times) was “— (“—” indicates that the peptide is inactive at 512 μg/ml.)”. Also, in test [3] (CMCC(B)63501, broth microdilution, LB broth, ~1.0 × 10^5 CFU/ml, 0.5 to 512.0 μg/ml, 37 °C, 24 h, OD600, performed three times), the “MIC Bacillus subtilis” value was “— (“—” indicates that the peptide is inactive at 512 μg/ml.)”. Also, the “MIC Staphylococcus aureus” value in test [4] (CMCC(B)26003, broth microdilution, LB broth, ~1.0 × 10^5 CFU/ml, 0.5 to 512.0 μg/ml, 37 °C, 24 h, OD600, performed three times) was “— (“—” indicates that the peptide is inactive at 512 μg/ml.)”. The “MIC Escherichia coli” value in test [5] (CMCC(B) 44102, broth microdilution, LB broth, ~1.0 × 10^5 CFU/ml, 0.5 to 512.0 μg/ml, 37 °C, 24 h, OD600, performed three times) was “— (“—” indicates that the peptide is inactive at 512 μg/ml.)”. The “MIC Enterococcus faecalis” value in test [6] is “— (“—” indicates that the peptide is inactive at 512 μg/ml.)”.
